Values after ≈ are worked out from the molar mass of the structure shown.
How the values were obtained:
[1] = system: KB; assay: Cytotoxicity against human KB cells after 72 hrs; type: functional; conditions: read-out: ED50 (the source's name)
[2] = system: Spodoptera frugiperda; assay: Insecticidal activity against Spodoptera frugiperda; type: functional

Compound	EC50 [1] [µg/mL]	LC50 [2] [ng/cm2]
COc1ccc(C2COc3c(ccc(O)c3OC)C2)c(O)c1OC (stereo not given) [ISODUARTIN]	2.63 (≈ 7.91 µM)	>1000
COc1cc([C@H]2COc3c(ccc(O)c3OC)C2)c(OC)c(O)c1OC	3 (≈ 8.28 µM)	>1000
COc1ccc2c(c1OC)OC[C@H]1c3cc4c(cc3O[C@@H]21)OCO4	> 4	–
COc1cc(OC)c(-c2coc3cc(O)ccc3c2=O)cc1OC	> 4	–
COc1cc2c(cc1-c1coc3cc(O)ccc3c1=O)OCO2 [CUNEATIN]	> 4	–
CC[C@H](/C=C/[C@@H](C)[C@H]1CC[C@H]2[C@@H]3CC=C4C[C@@H](O)CC[C@]4(C)[C@H]3CC[C@]12C)C(C)C [STIGMASTEROL]	> 4	–
COc1cc([C@H]2COc3c(ccc(O)c3OC)C2)c(OC)c(OC)c1OC	3.8 (≈ 10.1 µM)	>1000

Source: ChEMBL document CHEMBL1150904, “Cytotoxic isoflavans from Eysenhardtia polystachya” (1998)
